Data from paper PMC8347148, “An Evaluation of Human Induced Pluripotent Stem Cells to Test for Cardiac Developmental Toxicity” (International Journal of Molecular Sciences, 2021).
Converted amounts (≈) assume the structure as drawn. Like-named read-outs stand apart in the source and are kept apart here.

Tests used:
[1] = tested on: human foreskin fibroblasts (hFF); assay: hFF viability screen (MTT); format: cell-based; details: for IC50: Homo sapiens, Fibroblast; for concentrations with reductions in hFF cell viability: Figure 4B
Procedure: Human foreskin fibroblasts (hFF) were gifted from Dr. Derrick Rancourt (University of Calgary). hFFs were seeded onto 0.1% gelatin-coated tissue culture plates and maintained in Dulbecco’s modification of Eagle’s medium (DMEM with 4.5 g/L glucose, L-glutamine and sodium pyruvate; Corning cellgro) supplemented with 10% FBS (Atlanta Biologicals, Flower Branch, GA, USA) and 0.5% penicillin/streptomycin (10,000 units/10,000 units, Gibco).
5-flurorouracil (5-FU), all-trans retinoic acid (atRA), and penicillin G (PenG) were selected from a subset of chemicals used in the original EST validation study. 5-FU and atRA were selected as positive test compounds due to their established embryotoxic potential while PenG was used as a negative control. All chemicals were purchased from Sigma. Stock solutions were prepared in DMSO and filtered through a 0.2 micron Acrodisc® PSF Syringe Filter (Pall Corporation, Port Washington, NY, USA), aliquoted into sterile microcentrifuge tubes and stored at −20 °C until use. Test chemicals were serially diluted to final concentrations in differentiation media. Cardiogenic cultures were treated with designated chemicals (or solvent only) through day 25 of differentiation and hFF cultures were treated with each compound for a 25 day duration period. Compounds were replenished with each medium change.
Cardiomyocyte survival following concurrent exposure to each compound was evaluated by 3-[4,5-dimethylthiazol-2-yl]-2,5-diphenylterazolium bromide (MTT) assay from three independent differentiations each carried out in technical quintuplicate as previously described. On day 25 of differentiation, cells were incubated with MTT (5 mg/mL) for 2 h at 37 °C. MTT supernatant was removed and replaced with a desorb solution of 0.7% SDS in 2-propanol. The absorbance of the solution was measured at 570 nm in an iMark™ microplate reader (Bio-Rad) with 655 nm as a reference wavelength. Here, mitochondrial dehydrogenase activity on the MTT in solution is directly proportional to a blue-purple product that is detected at 570 nm.
(§1) Half-maximal inhibitory compound doses of differentiation (ID50) and cytotoxicity (IC50) were determined from concentration-response curves using GraphPad Prism.

MEF2c mRNA expression = assay: day 10 qPCR of MEF2c in differentiating hiPSCs; format: cell-based, human
Text: One of the main critiques of traditional developmental toxicity evaluations is the length of time and technical training required to successfully complete assays. As such, a shorter, quantifiable, and correct in vitro embryotoxicity assessment could improve throughput without sacrificing accuracy. Given the correct predictions achieved with contraction counts described above, we next investigated if our approach could be modified with a shorter, qPCR-based endpoint to determine differentiation inhibition. Here, we selected two cardiogenesis-specific transcription factors, TBX5 and MEF2c, to determine if the adverse differentiation outcomes would already be detectable as changes in TBX5 and MEF2c expression on day 10 of differentiation.
RNA was extracted from three wells per biological replicate using the protocol from NucleoSpin RNA II kit (Macherey-Nagel, Mountain View, CA, USA) and pooled. RNA from three independent differentiations was then quantified using a NanoDrop® 1000 spectrophotometer (ThermoFisher Scientific, Grand Island, NY, USA) at 260 nm. 25 ng of total RNA was used as a template for cDNA synthesis with a mastermix including 5 µL 5× reaction buffer, 1.25 µL 10 mM dNTPs, 1.25 µL 400 U/µL RNase inhibitor, 0.1 µL 200 U/µL reverse transcriptase, 0.1 µL 3 µg/µL random primer, and 1.5 µL DEPC H2O for a total of 25 µL per reaction. 25 ng cDNA transcripts were used for quantitative polymerase chain reaction (qPCR) SYBR green technology on the MyiQ cycler (Bio-Rad). The reactions were setup for 10 min of denaturing at 94 °C (initial), followed by 40 cycles of denaturing at 94 °C, and annealing at 60 °C each 45 s. The n-fold expression in target samples was calculated with the ΔΔCT method by standardizing Ct values to GAPDH expression. Primer sequences for human GAPDH were 5′-[…]-3′ and 5′-[…]-3′. Target genes were cardiogenic markers TBX5 and MEF2c. Primer sequences for human TBX5 were 5′-[…]-3′ and 5′-[…]-3′ and primer sequences for human MEF2c were 5′-[…]-3′ and 5′-[…]-3′ [27].
as §1

hiPSC = assay: hiPSC-EST biostatistical prediction model; set-up: species or system human; details: for hiPSC (day 25 cluster) Biostatistical Embryotoxicity Classification: EST prediction model with contractile ID50, hiPSC IC50 and hFF IC50; for hiPSC (day 10 qPCR) Biostatistical Embryotoxicity Classification: EST prediction model with d10 TBX5 ID50
Text: The prediction model uses a series of equations to perform a linear discriminant analysis using determined IC50 and ID50 values determined from dose–response curves. […] Importantly, half-maximal concentrations found for 5-FU and atRA were decades lower than the maximum plasma concentration (Cmax) achieved during human exposure underscoring the strong potential of these two compounds to elicit embryotoxic outcomes in vivo.
To compare the efficacy of qPCR-based embryotoxicity classifications versus contractile assay-based classifications, the ID50 values generated from 5-FU and atRA TBX5 mRNA dose–response curves were compared against the ID50 values from the contractile assay curves in the EST biostatistical model.

mESCs [2] = tested on: mESCs; set-up: method as in PMID 14761682; details: mESC-EST, inhibition of differentiation; previously obtained in the authors' lab; cited from earlier work
mESCs [3] = tested on: mESCs; set-up: method as in PMID 14761682; details: mESC-EST, cell viability; previously obtained in the authors' lab; cited from earlier work
[4] = 600 h, MTT, 25 day treatment, read-out: hFF IC50
[5] = fibroblast row of the hiPSC-EST in Table 1 (values equal hFF IC50 of Table 2), read-out: hiPSC 3T3 IC50

SMILES: O=c1[nH]cc(F)c(=O)[nH]1 [5-Fluorouracil, 5-fluorouracil]
- effect on hFF cell viability [1]: dose-dependent reduction in cell viability
- IC50 [1, 4]: 0.000808 µg/mL (≈ 0.00621 µM)
- IC50 [1, 5]: 0.00081 µg/mL (≈ 0.00623 µM)
- concentrations with reductions in hFF cell viability ([1]; MTT): > 0.1 ng/mL
- effect on MEF2c mRNA expression (MEF2c mRNA expression; day 10): No reductions in MEF2c mRNA expression
- hiPSC (day 25 cluster) Biostatistical Embryotoxicity Classification (hiPSC): Strongly embryotoxic
- hiPSC (day 10 qPCR) Biostatistical Embryotoxicity Classification (hiPSC): Strongly embryotoxic
- mESCs ID50 (mESCs [2]): 0.0097 µg/mL
- mESCs IC50 (mESCs [3]): 22 ng/mL

SMILES: CC1(C)S[C@@H]2[C@H](NC(=O)Cc3ccccc3)C(=O)N2[C@H]1C(=O)O [Penicillin G, penicillin G]
- IC50 [1, 4]: ~1430 µg/mL (≈ 4290 µM)
- IC50 [1, 5]: 1430 µg/mL (≈ 4290 µM)
- concentrations with reductions in hFF cell viability ([1]; MTT): ≥ 800000 ng/mL
- effect on MEF2c mRNA expression (MEF2c mRNA expression; day 10): remained largely unchanged
- hiPSC (day 25 cluster) Biostatistical Embryotoxicity Classification (hiPSC): Not embryotoxic
- hiPSC (day 25 cluster) Biostatistical Embryotoxicity Classification (hiPSC; listed as PenG): non-embryotoxic
- hiPSC (day 10 qPCR) Biostatistical Embryotoxicity Classification (hiPSC): Not embryotoxic
- hiPSC (day 10 qPCR) Biostatistical Embryotoxicity Classification (hiPSC; listed as PenG): non-embryotoxic
- mESCs ID50 (mESCs [2]): 750 µg/mL
- mESCs IC50 (mESCs [3]): 800000 ng/mL

SMILES: CC1=C(/C=C/C(C)=C/C=C/C(C)=C/C(=O)O)C(C)(C)CCC1 [All-Trans Retinoic Acid, all-trans retinoic acid]
- effect on hFF cell viability [1]: dose-dependent reduction in cell viability
- IC50 [1, 4]: 0.0125 µg/mL (≈ 0.0415 µM)
- IC50 [1, 5]: 0.0125 µg/mL (≈ 0.0416 µM)
- hFF IC50 ([1]; MTT, 25 day treatment): 0.0125 µg/mL
- concentrations with reductions in hFF cell viability ([1]; MTT): > 10 ng/mL
- concentration with significant cell death in hFF ([1]; highest tested concentration): 1000 ng/mL
- doses with steady decline in MEF2c mRNA expression (MEF2c mRNA expression; day 10): above 1 × 10^−3 μg/mL
- effect on MEF2c mRNA expression (MEF2c mRNA expression; day 10): dose-dependently downregulated
- MEF2c mRNA ID50 (MEF2c mRNA expression; day 10 of differentiation): 0.04 µg/mL
- hiPSC (day 25 cluster) Biostatistical Embryotoxicity Classification (hiPSC): Strongly embryotoxic
- hiPSC (day 10 qPCR) Biostatistical Embryotoxicity Classification (hiPSC): Strongly embryotoxic
- mESCs ID50 (mESCs [2]): 0.0017 µg/mL
- mESCs IC50 (mESCs [3]): 0.09 ng/mL
